SMILES strings stand for the structures.

In the test the target is GABAA receptor. In words: [35S]-TBPS binding assay, rat brain cortical membranes, in the presence of GABA. The note with it: inhibition of 3 nM [35S]-TBPS binding, 5 mM GABA, 90 min, room temp. How it is done:
[35S]-t-Butylbicyclophosphorothionate (TBPS) binding assays using rat brain cortical membranes in the presence of 5 mM GABA has been described (Gee et al, J. Pharmacol. Exp. Ther. 1987, 241, 346-353; Hawkinson et al, Mol. Pharmacol. 1994, 46, 977-985; Lewin, A.H et al., Mol. Pharmacol. 1989, 35, 189-194).
Briefly, cortices are rapidly removed following decapitation of carbon dioxide-anesthetized Sprague-Dawley rats (200-250 g). The cortices are homogenized in 10 volumes of ice-cold 0.32 M sucrose using a glass/teflon homogenizer and centrifuged at 1500 x g for 10 min at 4° C. The resultant supernatants are centrifuged at 10,000 x g for 20 min at 4° C. to obtain the P2 pellets. The P2 pellets are resuspended in 200 mM NaCl/50 mM Na-K phosphate pH 7.4 buffer and centrifuged at 10,000 x g for 10 min at 4° C. This washing procedure is repeated twice and the pellets are resuspended in 10 volumes of buffer. Aliquots ([…]) of the membrane suspensions are incubated with 3 nM [^35S]-TBPS and […] aliquots of test drug dissolved in dimethyl sulfoxide (DMSO) (final 0.5%) in the presence of 5 mM GABA. The incubation is brought to a final volume of 1.0 mL with buffer. […] Following a 90 min incubation at room temp, the assays are terminated by filtration through glass fiber filters (Schleicher and Schuell No. 32) using a cell harvester (Brandel) and rinsed three times with ice-cold buffer. Filter bound radioactivity is measured by liquid scintillation spectrometry. Non-linear curve fitting of the overall data for each drug averaged for each concentration is done using Prism (GraphPad). […] The concentration of test compound producing 50% inhibition (IC50) of specific binding and the maximal extent of inhibition (Imax) are determined for the individual experiments with the same model used for the overall data and then the means ± SEM.s of the individual experiments are calculated.
Various compounds are or can be screened to determine their potential as modulators of [^35S]-TBPS binding in vitro. These assays are or can be performed in accordance with the above.
On to `COC[C@@]1(O)CC[C@H]2[C@H](CC[C@@H]3[C@@H]2CC[C@]2(C)[C@@H]([C@@H](C)Cn4cc(C#N)cn4)CCC[C@@H]32)C1` [Example 3, 1-((R)-2-((1R,4aS,4bR,6aR,8R,10aS,10bR,12aS)-8-hydroxy-8-(methoxymethyl)-12a-methyloctadecahydrochrysen-1-yl)propyl)-1H-pyrazole-4-carbonitrile], for which the IC50 (commonly the concentration at which inhibition is half-maximal) is under 100 nM.

Regarding `C[C@@H]1CC[C@H]([C@@H](C)Cn2cc(C#N)cn2)[C@@]2(C)CC[C@H]3[C@@H](CC[C@@H]4C[C@](C)(O)CC[C@@H]43)[C@H]12` [Example 11, 1-((R)-2-((1R,4R,4aS,4bR,6aR,8R,10aS,10bR,12aR)-8-hydroxy-4,8,12a-trimethyloctadecahydrochrysen-1-yl)propyl)-1H-pyrazole-4-carbonitrile], the IC50 was under 100 nM.

For `CCC[C@@]1(O)CC[C@H]2[C@@H](CC[C@@H]3[C@@H]2CC[C@]2(C)[C@@H]([C@@H](C)Cn4nnc(C)n4)CCC[C@@H]32)C1` [Example 5, (2R,4aS,4bR,6aS,7R,10aS,10bR,12aS)-6a-methyl-7-((R)-1-(5-methyl-2H-tetrazol-2-yl)propan-2-yl)-2-propyloctadecahydrochrysen-2-ol], the IC50 fell in the range of 100 to 1000 nM.

Regarding `CC[C@]12CC[C@@](C)(O)C[C@H]1CC[C@H]1[C@@H]3CCC[C@H](CNS(=O)(=O)c4ccccc4)[C@@]3(C)CC[C@@H]12` [Example 39, N-(((1S,4aS,4bS,6aR,8R,10aS,10bS,12aS)-10a-ethyl-8-hydroxy-8,12a-dimethyloctadecahydrochrysen-1-yl)methyl)benzenesulfonamide], the IC50 lay in the range of 100 to 1000 nM.

Take `C[C@H](Cn1cc(C#N)cn1)[C@H]1CC[C@H]2[C@@H]3CC=C4CC[C@](C)(O)CC[C@]4(C)[C@H]3CC[C@]12C` [Example 18, 1-((S)-2-((1R,3aS,3bS,8S,10aR,10bS,12aS)-8-hydroxy-8,10a,12a-trimethyl-1,2,3,3a,3b,4,6,7,8,9,10,10a,10b,11,12,12a-hexadecahydrocyclohepta[a]cyclopenta[f]naphthalen-1-yl)propyl)-1H-pyrazole-4-carbonitrile]: the IC50 was under 100 nM.

As for `C[C@@]1(O)CC[C@H]2[C@H](CC[C@@H]3[C@@H]2CC[C@]2(C)[C@@H](CNC(=O)c4cccnc4)CCC[C@@H]32)C1` [Example 35, N-(((1S,4aS,4bR,6aR,8R,10aS,10bR,12aS)-8-hydroxy-8,12a-dimethyloctadecahydrochrysen-1-yl)methyl)nicotinamide], the IC50 is 100 to 1000 nM.
